Measured values reported in ChEMBL document CHEMBL1201862, “PubChem BioAssay data set” (2004).
“And” between values parts separate entries of the source, which are not always exact repeats. Equal values may be shown once. The source made the active and inactive calls.

Assays:
[1] = system: INS1; assay: beta cell apoptosis inhibitors, cytokine rescue, dose response, luminescence, retest (AID 449756); format: functional, cell-based; details: Rattus norvegicus;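 further: cell death triggered by IL-1 beta plus TNF-alpha plus IFN-gamma mixture; protective hits raise ATP signal compared with cytokine alone wells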
[2] = C. albicans growth with fluconazole, confirmation, fluorescence, retest (AID 2467); format: functional, cell-based
[3] = off-target signal loss in HeLa-CEM21 co-culture – HeLa F-luc CTL cells, cherry-picked, counter-screen for HIV-1 Env fusion inhibitor project, dose response (AID 652040); format: functional, cell-based;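 further: potency for signal decrease marking cytotoxic or nonspecific inhibition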
[4] = target: T1, Microphthalmia-associated transcription factor (Homo sapiens, UniProt O75030); assay: TRPM1 promoter luciferase signal decrease, dose response, MITF inhibitor project, cell-based, SK-MEL-5, cherry-picked, set 3 (AID 493073); format: functional
T1 sequence (O75030 whole entry): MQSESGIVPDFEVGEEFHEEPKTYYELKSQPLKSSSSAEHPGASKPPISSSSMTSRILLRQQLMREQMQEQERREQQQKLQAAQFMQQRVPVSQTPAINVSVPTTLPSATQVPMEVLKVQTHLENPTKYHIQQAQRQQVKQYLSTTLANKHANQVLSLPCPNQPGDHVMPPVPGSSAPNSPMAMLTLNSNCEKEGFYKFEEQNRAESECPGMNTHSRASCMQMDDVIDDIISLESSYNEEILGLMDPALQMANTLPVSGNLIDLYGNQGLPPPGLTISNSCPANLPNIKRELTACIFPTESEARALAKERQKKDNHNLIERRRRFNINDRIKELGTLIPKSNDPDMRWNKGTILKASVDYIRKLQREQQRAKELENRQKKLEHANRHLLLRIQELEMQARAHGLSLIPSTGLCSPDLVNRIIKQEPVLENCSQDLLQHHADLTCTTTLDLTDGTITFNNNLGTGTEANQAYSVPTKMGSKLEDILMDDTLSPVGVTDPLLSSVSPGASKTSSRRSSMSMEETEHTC

[5] = inhibitors of HIV Env-driven cell fusion, dose response, cherry-pick (AID 652057); format: functional, cell-based
[6] = inhibitors of clade B AD8 Env fusion, dose response, cell-based, cherry-pick (AID 652062); format: functional;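 further: luciferase signal from cell-cell fusion driven by HIV-1 clade B AD8 Env; potency is for inhibitors of fusion seen as a drop in luminescence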
[7] = insulin promoter down-regulators in MIN6 cells, imaging, high-content screening, mouse beta cells (AID 1628); format: functional
[8] = ZM109 Env clade C HIV-1 fusion inhibitors, dose response, HeLa effector, CEM target cells, luciferase, cherry-pick (AID 652058); format: functional, cell-based
[9] = inhibitors of intracellular T. cruzi replication, confirmation, NIH3T3 host cells, beta-gal luminescence (AID 2044); format: functional, cell-based;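 further: intracellular parasites grown in NIH/3T3 mouse fibroblasts as host cells; luminescent beta-galactosidase reporter signal from transgenic T. cruzi replicating inside host cells; inhibitors lower the luminescence signal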
[10] = target: T2, Apoptotic protease-activating factor 1 (Homo sapiens, UniProt O14727); format: functional
T2 sequence (O14727 whole entry): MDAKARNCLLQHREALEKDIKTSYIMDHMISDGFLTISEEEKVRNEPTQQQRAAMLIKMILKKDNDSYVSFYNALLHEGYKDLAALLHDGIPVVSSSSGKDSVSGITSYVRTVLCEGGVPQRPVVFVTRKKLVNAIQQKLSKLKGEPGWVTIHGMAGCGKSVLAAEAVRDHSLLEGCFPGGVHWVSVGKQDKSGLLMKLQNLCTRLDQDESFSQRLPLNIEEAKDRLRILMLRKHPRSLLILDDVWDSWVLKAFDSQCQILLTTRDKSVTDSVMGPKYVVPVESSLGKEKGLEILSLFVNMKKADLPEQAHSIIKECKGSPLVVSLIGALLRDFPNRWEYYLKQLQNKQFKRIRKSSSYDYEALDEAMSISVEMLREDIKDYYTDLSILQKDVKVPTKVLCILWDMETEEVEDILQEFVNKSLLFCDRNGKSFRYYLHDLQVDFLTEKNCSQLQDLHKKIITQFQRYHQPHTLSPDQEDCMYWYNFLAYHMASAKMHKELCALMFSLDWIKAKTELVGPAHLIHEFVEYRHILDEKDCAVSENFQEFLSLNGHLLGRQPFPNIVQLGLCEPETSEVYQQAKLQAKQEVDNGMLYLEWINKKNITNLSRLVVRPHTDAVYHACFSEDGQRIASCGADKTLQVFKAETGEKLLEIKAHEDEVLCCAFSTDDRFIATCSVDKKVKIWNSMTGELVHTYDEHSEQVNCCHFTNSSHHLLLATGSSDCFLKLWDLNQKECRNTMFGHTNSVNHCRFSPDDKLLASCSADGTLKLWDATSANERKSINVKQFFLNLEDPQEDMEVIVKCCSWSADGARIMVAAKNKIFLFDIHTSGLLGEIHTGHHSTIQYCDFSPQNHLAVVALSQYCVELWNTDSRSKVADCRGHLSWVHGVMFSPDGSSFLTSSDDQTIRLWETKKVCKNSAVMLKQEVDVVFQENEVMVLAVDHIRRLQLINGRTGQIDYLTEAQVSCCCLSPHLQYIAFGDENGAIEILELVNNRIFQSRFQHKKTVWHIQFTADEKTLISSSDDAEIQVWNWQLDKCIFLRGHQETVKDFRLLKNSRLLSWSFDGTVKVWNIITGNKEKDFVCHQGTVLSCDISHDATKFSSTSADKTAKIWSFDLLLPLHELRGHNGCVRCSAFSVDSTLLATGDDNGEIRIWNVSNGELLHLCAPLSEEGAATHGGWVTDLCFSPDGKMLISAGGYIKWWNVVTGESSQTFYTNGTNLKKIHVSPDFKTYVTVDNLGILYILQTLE

[11] = cytotoxicity in MIN6 insulinoma cells, dose response, cytotoxicity control, cell-based, mouse insulinoma (AID 2122); format: functional;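 further: confirmatory high-throughput counterscreen run to flag cytotoxic compounds; mouse MIN-6 beta cells carrying an insulin promoter eGFP reporter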
[12] = target: T3, Ubiquitin-conjugating enzyme E2 N (Homo sapiens, UniProt P61088); format: functional;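 further: Dose-response confirmation in a TR-FRET assay detecting UBC13-driven polyubiquitin chain formation, inhibition measured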
T3 sequence (P61088 whole entry): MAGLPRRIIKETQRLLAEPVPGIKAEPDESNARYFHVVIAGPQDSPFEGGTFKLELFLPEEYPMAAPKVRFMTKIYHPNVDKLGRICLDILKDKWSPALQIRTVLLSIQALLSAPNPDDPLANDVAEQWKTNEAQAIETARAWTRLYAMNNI

[13] = NIH-3T3 fibroblast cytotoxicity, dose response, cytotoxicity control, cell-based, fluorescence, Alamar Blue, secondary assay (AID 2327); format: functional;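 further: NIH-3T3 mouse fibroblasts cultured with fluconazole at 8 µg/mL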
[14] = target: T4, X-box-binding protein 1 (Homo sapiens, UniProt P17861); format: functional, Cricetulus griseus;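 further: confirmatory dose-response counter-screen serving a CHOP assay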
T4 sequence (P17861 whole entry): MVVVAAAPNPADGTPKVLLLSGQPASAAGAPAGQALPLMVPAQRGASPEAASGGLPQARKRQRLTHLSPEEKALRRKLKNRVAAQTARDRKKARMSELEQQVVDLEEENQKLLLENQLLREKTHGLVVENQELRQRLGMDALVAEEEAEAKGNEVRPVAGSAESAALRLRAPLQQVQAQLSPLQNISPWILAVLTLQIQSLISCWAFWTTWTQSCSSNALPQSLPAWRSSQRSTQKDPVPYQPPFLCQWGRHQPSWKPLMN

[15] = CEM21 lymphoblast cell cytotoxicity, dose response, cytotoxicity control for viral fusion inhibitor project, CellTiter-Glo luminescence, cherry-picked (AID 652042); format: functional, cell-based;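 further: potency for signal decrease meaning cytotoxicity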
[16] = system: A-375; assay: A375 melanoma cell viability reduction, dose response, counter-screen for MITF modulator project, cherry-pick samples, set 2 (AID 540335); format: functional, cell-based; details: Homo sapiens
[17] = target: G-protein coupled receptor 55 (Homo sapiens, UniProt Q9Y2T6); assay: GPR55 agonists via beta-arrestin recruitment, primary screen, imaging, U2OS cells, beta-arrestin-GFP redistribution (AID 1961); format: functional
Sequence of G-protein coupled receptor 55 (Q9Y2T6 whole entry): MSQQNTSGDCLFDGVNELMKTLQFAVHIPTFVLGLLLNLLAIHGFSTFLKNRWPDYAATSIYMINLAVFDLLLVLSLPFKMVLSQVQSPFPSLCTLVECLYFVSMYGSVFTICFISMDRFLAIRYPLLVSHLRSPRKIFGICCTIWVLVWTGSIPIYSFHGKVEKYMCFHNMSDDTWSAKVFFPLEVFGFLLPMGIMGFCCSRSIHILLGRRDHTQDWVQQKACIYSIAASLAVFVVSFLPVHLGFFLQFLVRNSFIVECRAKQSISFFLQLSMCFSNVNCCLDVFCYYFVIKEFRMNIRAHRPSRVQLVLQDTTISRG

[18] = target: Cysteine protease ATG4B (Homo sapiens, UniProt Q9Y4P1); format: functional;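 further: Fluorescence-based dose-response confirmation assay measuring inhibition of ATG4B activity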
Sequence of Cysteine protease ATG4B (Q9Y4P1 whole entry): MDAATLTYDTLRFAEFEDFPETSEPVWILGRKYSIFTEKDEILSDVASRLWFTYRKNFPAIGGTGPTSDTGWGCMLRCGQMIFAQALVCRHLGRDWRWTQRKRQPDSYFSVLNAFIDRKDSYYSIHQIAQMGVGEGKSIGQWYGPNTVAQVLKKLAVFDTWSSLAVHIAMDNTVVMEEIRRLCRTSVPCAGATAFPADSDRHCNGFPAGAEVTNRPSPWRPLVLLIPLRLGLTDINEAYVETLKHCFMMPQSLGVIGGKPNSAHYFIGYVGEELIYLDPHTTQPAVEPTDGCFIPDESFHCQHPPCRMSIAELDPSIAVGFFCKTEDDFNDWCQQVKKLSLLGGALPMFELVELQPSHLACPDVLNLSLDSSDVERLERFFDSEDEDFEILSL

[19] = Luminescence Cell-Based Dose Confirmation HTS to Identify Inhibitors of Platelet Dense Granule Release. [Related pubchem assays: 1663 (Primary HTS), 1678 (Summary of Project)]; format: functional
[20] = target: Phospholipase A2 (Homo sapiens, UniProt P04054); format: functional;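 further: confirmatory dose-response counterscreen on phospholipase A2, testing hits that came from an ultra-high-throughput screen for ATG4B inhibitors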
Sequence of Phospholipase A2 (P04054 whole entry): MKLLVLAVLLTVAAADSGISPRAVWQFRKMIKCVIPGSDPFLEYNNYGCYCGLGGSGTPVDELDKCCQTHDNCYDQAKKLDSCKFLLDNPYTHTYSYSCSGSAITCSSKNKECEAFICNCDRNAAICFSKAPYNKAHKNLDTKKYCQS

[21] = target: Luciferin 4-monooxygenase (Photinus pyralis, UniProt P08659); assay: firefly luciferase enzyme inhibitors, dose response, biochemical, luminescence (AID 1891)
Sequence of Luciferin 4-monooxygenase (P08659 whole entry): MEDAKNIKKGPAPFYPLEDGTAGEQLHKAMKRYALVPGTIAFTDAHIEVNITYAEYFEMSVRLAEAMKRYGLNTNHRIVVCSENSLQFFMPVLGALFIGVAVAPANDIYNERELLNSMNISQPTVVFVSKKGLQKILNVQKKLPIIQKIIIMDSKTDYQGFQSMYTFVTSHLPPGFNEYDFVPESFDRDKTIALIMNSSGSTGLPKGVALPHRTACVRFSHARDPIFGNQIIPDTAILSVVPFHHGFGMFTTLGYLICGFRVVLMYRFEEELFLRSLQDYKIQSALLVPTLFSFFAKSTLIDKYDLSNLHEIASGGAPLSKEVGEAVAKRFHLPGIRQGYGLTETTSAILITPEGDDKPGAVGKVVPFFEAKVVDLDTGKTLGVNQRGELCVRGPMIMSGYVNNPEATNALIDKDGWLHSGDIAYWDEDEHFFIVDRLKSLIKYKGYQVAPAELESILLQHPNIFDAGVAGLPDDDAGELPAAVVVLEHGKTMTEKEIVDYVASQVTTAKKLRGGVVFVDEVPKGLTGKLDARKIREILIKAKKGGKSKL

With Cc1ccccc1OCc1n(CC(=O)OC2CC(C)CCC2C(C)C)c2ccccc2[n+]1C.[Cl-] (stereo unspecified) the AC50 [1] was 3.39 µM (active), the EC50 [2] was 693 nM (active) and the AC50 [3] was 9.17 µM (active). The AC50 [4] was 7.51 µM (active), the AC50 [5] was 6.17 µM (active) and the AC50 [6] was 7 µM (active). The IC50 [7] was 1.52 µM (active), the AC50 [8] was 8.94 µM (active) and the EC50 [9] was 684 nM (active) and 429 nM (active). For the same compound, the IC50 [10] was 29.5 µM (active), the IC50 [11] was 1.95 µM (active) and the IC50 [12] was > 20 µM (inactive). For the same compound, the EC50 [13] was > 160 µM (inactive), the “Absolute IC50 (XBP1)” value [14] was 10 µM and the AC50 [15] was 4.93 µM (active). For the same compound, the AC50 [16] was 19 µM (active) and the EC50 [17] was > 32 µM (inactive).
For OC(CNCc1ccc(Cl)c(Cl)c1)c1ccccc1 (stereo unspecified), the IC50 [18] was 14.5 µM (active), the EC50 [19] was 19 µM (active) and the IC50 [20] was 9.81 µM (active). The EC50 [21] was > 112 µM (not active).
